Results: US9308157B2, “Whitening cosmetic” (AJINOMOTO CO., INC., priority 2011, dated 2016)
Values joined by “and” are separate entries in the source; they are usually repeats but may differ in a detail not shown here. Equal entries are not always repeated.

Experiments:
Format in all cases: cell-based
[1] = test system: B16 melanoma; test: Melanin production rate measurement (Experimental Example 1, 6 well plate, medium + cell melanin); conditions: for melanin production suppressive effect / whitening effect when combined as component (B): combined with (A) N-Ac-CP2Et; for melanin production suppressive effect / whitening effect when combined as component (B) / melanin production suppressing effect / whitening effect when combined as component (B): summary of Table 1, highest grade stated; for melanin production suppressing effect / whitening effect when combined as component (B): combined with (A) N-Ac-CP; for activity at 20000 µM: 20 mM; for activity at 22500 µM: 22.5 mM
Procedure: B16 melanoma was cultured in DMEM (Dulbecco's Modified Eagle Medium) (high glucose, containing 10% serum). After confluence, the cells were seeded on a 6 well plate. The next day, each well medium was exchanged with DMEM (300 μM tyrosine added) added with each evaluation sample at a given evaluation concentration (Table 1), and the cells were cultured for 3 days. […] The medium was recovered, and centrifuged at 10000 rpm for 10 min. The absorbance of the supernatant at 450 nm was measured by spectrophotometer. The medium was recovered, and the cells were rinsed once with PBS (phosphate-buffered saline). A blending solution of 4% aqueous sodium hydroxide solution and dimethyl sulfoxide (9:1) was added to the well, and the mixture was stood at room temperature for 10 min. The cells were dissolved and recovered, and centrifuged at 3500 rpm for 10 min. The absorbance (450 nm) of the supernatant was measured by spectrophotometer. The total of the melanin amount in the medium and in the cell was calculated from the analytical curve drawn using synthetic melanin. By setting the calculated value 3 days after addition of each sample at a given concentration as a relative percentage to the calculated value of the control (no sample addition) defined as 100%, the melanin production rate of each sample to the melanin amount in the control as 100% was calculated. When a sample was dissolved dimethyl sulfoxide and then added, a sample containing 0.1% dimethyl sulfoxide was used as a control (no sample addition). The melanin production rate was standardized from the amount of cell protein obtained in Experimental Example 2.
(§1) The spectrophotometer used in this melanin production suppression test was DU800, manufactured by BECKMAN COULTER.
The melanin production rate of each sample was measured for a single use and combined use, and the effect of the combined use was evaluated by the following criteria using the theoretical value.
The theoretical value was melanin production rate (%) by single use of component (A)×melanin production rate (%) by single use of component (B)/100.

[2] = test system: B16 melanoma; test: Cell viability rate measurement (Experimental Example 2, cell protein amount); conditions: for cell viability rate (single): single use, 3 days; for safety when combined as component (B): summary of Table 1, highest grade stated
Procedure: B16 melanoma was cultured in DMEM (Dulbecco's Modified Eagle Medium) (high glucose, containing 10% serum). After confluence, the cells were seeded on a 6 well plate. The next day, each well medium was exchanged with DMEM (300 μM tyrosine added) added with each evaluation sample at a given evaluation concentration (Table 1), and the cells were cultured for 3 days. The medium was recovered, and the cells were rinsed once with PBS (phosphate-buffered saline). A blending solution of 4% aqueous sodium hydroxide solution and dimethyl sulfoxide (9:1) was added to the well, and the mixture was stood at room temperature for 10 min. The cells were dissolved and recovered, and centrifuged at 3500 rpm for 10 min, and the supernatant was diluted 3-fold with milli-Q water. Solution A (DC Protein Assay; BIO RAD, 100 μl) was added to the diluted solution (20 μl) and the mixture was admixed in a vortex. Solution B (DC Protein Assay; BIO RAD, 800 μl) was added and mixed therewith, and the mixture was stood at room temperature for 15 min. After standing, the absorbance (750 nm) was measured by a spectrophotometer. In addition, the analytical curve of albumin was determined, the protein amount of the above-mentioned solution was calculated, and the relative rate was taken as a viability rate.
as §1
The cell viability rate of each sample was measured for a single use and combined use, and the effect of the combined use was evaluated by the following criteria using the degree of toxic mitigation.
The degree of toxic mitigation was cell viability rate (%) by combined use of component (A) and component (B)−cell viability rate (%) by single use of component (B).

[3] = test system: B16 melanoma; test: Melanin production rate measurement (Experimental Example 3, 96 well plate, 5-25 mM); conditions: for IC50: Mus musculus, B16, 72 h, 3 days, samples 5-25 mM, read-out: concentration suppressing melanin production by 50%
Procedure: The cysteine derivatives of Synthetic Example 1 and Synthetic Example 3 were measured for a melanin production rate for comparison of a whitening effect. B16 melanoma was cultured in DMEM (Dulbecco's Modified Eagle Medium) (containing high glucose, serum 10%). After confluence, it was seeded in a 96 well plate. The next day, each well medium was exchanged with DMEM added with each evaluation sample adjusted to 5-25 mM, and the cells were cultured for 3 days. The absorbance at 450 nm was measured by a microplatereader. By setting the measurement value 3 days after addition of each sample at a given concentration as a relative percentage to the measurement value of the control (no sample addition) defined as 100%, the melanin production rate of each sample to the melanin amount in the control as 100% was calculated.
The calculated concentrations of the cysteine derivatives of Synthetic Example 1 and Synthetic Example 3 necessary for suppressing the melanin production rate by 50% are shown in Table 2.
The microplatereader used in this melanin production suppressing test was MULTISKAN FC manufactured by Thermo Fisher Scientific Inc.

[4] = Mus musculus, B16, 72 h, single use, 3 days, control = 100%

COc1ccc(C(=O)O)c(O)c1 [4-MS, 4-methoxy salicylic acid]
activity at 5000 µM ([1]; Mus musculus, B16, 72 h, 5 mM (0.0084%), single use, 3 days, control = 100%): 100% | melanin production suppressive effect / whitening effect when combined as component (B) [1]: extremely remarkably improved | cell viability rate (single) ([2]; 5 mM (0.0084%)): 87.0%

N[C@@H](CCC(=O)N[C@@H](CS)C(=O)NCC(=O)O)C(=O)O [GSH, glutathione (reduced type)]
activity at 500 µM ([1]; Mus musculus, B16, 72 h, 0.5 mM, single use, 3 days, control = 100%): 100% | activity at 2000 µM ([1]; Mus musculus, B16, 72 h, 2 mM, single use, 3 days, control = 100%): 100% | melanin production suppressive effect / whitening effect when combined as component (B) [1]: improved | melanin production suppressing effect / whitening effect when combined as component (B) [1]: extremely remarkably improved | cell viability rate (single) ([2]; 0.5 mM): 94.4% | cell viability rate (single) ([2]; 2 mM): 67.8% | safety when combined as component (B) ([2]; combined with (A) N-Ac-CP2Et): remarkably improved | safety when combined as component (B) ([2]; combined with (A) N-Ac-CP): remarkably improved

CCOC(=O)C1(C)SCC(C(=O)O)N1C(C)=O (stereo not shown) [N—Ac-CP2Et, N-acetyl-2-methylthiazolidine-2,4-dicarboxylic acid 2-ethyl ester]
activity at 15000 µM ([1]; Mus musculus, B16, 72 h, 15 mM, single use, 3 days, control = 100%): 92.2% | activity at 20000 µM [1, 4]: 62% | activity at 22500 µM [1, 4]: 48.6% | IC50 [3]: 18.9 mM | cell viability rate (single) ([2]; 15 mM): 105.7% | cell viability rate (single) ([2]; 20 mM): 101.5% | cell viability rate (single) ([2]; 22.5 mM): 98.6%

CC(=O)N1C(C(=O)O)CSC1(C)C(=O)O (stereo not shown) [N—Ac-CP, N-acetyl-2-methylthiazolidine-2,4-dicarboxylic acid]
activity at 20000 µM [1, 4]: 59.4% | activity at 22500 µM [1, 4]: 45.1% | activity at 25000 µM ([1]; Mus musculus, B16, 72 h, 25 mM, single use, 3 days, control = 100%): 35.3% | cell viability rate (single) ([2]; 20 mM): 95.6% | cell viability rate (single) ([2]; 22.5 mM): 100.6% | cell viability rate (single) ([2]; 25 mM): 97.8%

CCOC(=O)[C@]1(C)SC[C@@H](C(=O)O)N1C(C)=O [Synthetic Example 3, (2S,4R)-N-acetyl-2-methylthiazolidine-2,4-dicarboxylic acid 2-ethyl ester]
IC50 [3]: 16.6 mM | melanin production suppressing effect compared with Synthetic Example 1 ([3]; from Table 2): stronger

OC[C@H]1O[C@@H](Oc2ccc(O)cc2)[C@H](O)[C@@H](O)[C@@H]1O [arbutin]
melanin production suppressive effect / whitening effect when combined as component (B) [1]: extremely remarkably improved | melanin production suppressing effect / whitening effect when combined as component (B) [1]: improved | cell viability rate (single) ([2]; 0.5 mM): 85.5% and 96.5% | safety when combined as component (B) ([2]; combined with (A) N-Ac-CP2Et): improved | safety when combined as component (B) ([2]; combined with (A) N-Ac-CP): improved

CCCCCCCCCCCCCCCCOC1=C(O)C(=O)O[C@@H]1[C@@H](O)CO [cetyl ascorbyl ether, 3-o-cetyl ascorbyl ether]
Melanin production rate (single) ([1]; 30 μM, single use, 3 days, control = 100%): 72.8% and 67.6% | melanin production suppressive effect / whitening effect when combined as component (B) [1]: remarkably improved | melanin production suppressing effect / whitening effect when combined as component (B) [1]: remarkably improved | cell viability rate (single) ([2]; 30 μM): 75.8%

O=c1oc2c(O)c(O)cc3c(=O)oc4c(O)c(O)cc1c4c23 [ellagic acid]
activity at 6 µM ([1]; Mus musculus, B16, 72 h, 6 μM, single use, 3 days, control = 100%): 100% | melanin production suppressive effect / whitening effect when combined as component (B) [1]: improved | cell viability rate (single) ([2]; 6 μM): 96.1% | safety when combined as component (B) ([2]; combined with (A) N-Ac-CP2Et): extremely remarkably improved

O=c1cc(CO)occ1O [kojic acid]
activity at 250 µM ([1]; Mus musculus, B16, 72 h, 0.25 mM, single use, 3 days, control = 100%): 66% | melanin production suppressive effect / whitening effect when combined as component (B) [1]: extremely remarkably improved | cell viability rate (single) ([2]; 0.25 mM): 99.1% | safety when combined as component (B) ([2]; combined with (A) N-Ac-CP2Et): extremely remarkably improved

CCCCC/C=C\C/C=C\CCCCCCCC(=O)O [linoleic acid]
activity at 75 µM ([1]; Mus musculus, B16, 72 h, 75 μM, single use, 3 days, control = 100%): 71.3% | melanin production suppressive effect / whitening effect when combined as component (B) [1]: improved | cell viability rate (single) ([2]; 75 μM): 105.2% | safety when combined as component (B) ([2]; combined with (A) N-Ac-CP2Et): remarkably improved

CCCCCCc1ccc(O)cc1O [rcinol, 4-hexylresorcinol]
activity at 12.5 µM ([1]; Mus musculus, B16, 72 h, 12.5 μM, single use, 3 days, control = 100%): 66.2% | melanin production suppressive effect / whitening effect when combined as component (B) [1]: improved | cell viability rate (single) ([2]; 12.5 μM): 94.3% | safety when combined as component (B) ([2]; combined with (A) N-Ac-CP2Et): remarkably improved

NC[C@H]1CC[C@H](C(=O)O)CC1 [tranexamic acid, trans-4-(aminomethyl)-cyclohexanecarboxylic acid]
activity at 10000 µM ([1]; Mus musculus, B16, 72 h, 10 mM, single use, 3 days, control = 100%): 100% | melanin production suppressive effect / whitening effect when combined as component (B) [1]: extremely remarkably improved | cell viability rate (single) ([2]; 10 mM): 93.1% | safety when combined as component (B) ([2]; combined with (A) N-Ac-CP2Et): remarkably improved
